Results as given in patent EP4737454A1, “GLP-1 RECEPTOR AGONIST, AND PREPARATION METHOD THEREFOR AND USE THEREOF” (Wayne Biotechnology Co., Ltd., priority 2023, dated 2025).

Experiments:
Human GLP-1R = Human GLP-1R (Homo sapiens, UniProt P43220); experiment: cAMP level determination in human GLP-1R stably transfected HEK293T cells (HTRF cAMP kit); assay type: cell-based; settings: 37°C 30 min
Summary of the method: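 Stably transfected HEK293T cells (1 Million/mL) stimulated 30 min at 37°C with compound (top final 2000 nM, 1:3, 11 points, 0.2% DMSO) plus 0.5 mM IBMX. HTRF cAMP read after 2 hr RT; stimulation % normalised to 100 nM GLP-1 and DMSO wells, cAMP from standard curve, EC50 by four-parameter fit.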

[1] = Pharmacokinetic analysis of compounds in mouse plasma after oral gavage or intravenous injection; assay type: in vivo, Male C57BL/6J mice; settings: for AUC(0-t) at 24 h / Cmax / Tmax / half-life / clearance: mouse plasma; for AUC(0-t) at 24 h / Cmax / Tmax: dose 5 mg/kg single oral gavage; for half-life: table dose 5 mg/kg (oral gavage); for clearance: table dose 5 mg/kg, IV arm was 1 mg/kg; for F: mouse, PO 5 mg/kg versus IV 1 mg/kg
Method: Male C57BL/6J mice, approximately 30 g, 6-9 weeks old, gavage oral administration and intravenous injection: 3 mice per compound, animals from Shanghai Medicilon Inc.
The pharmacokinetic characteristics of the compounds were tested in mice after oral gavage (PO) or intravenous injection (IV) using a standard protocol. The test compounds were prepared as clear solutions with the vehicle: 10% (v/v) DMSO + 10% (v/v) Solutol + 80% (v/v) Saline. Three mice were administered a single oral gavage dose of 5 mg/kg, and blood samples were collected at 0.25, 0.5, 1, 2, 4, 6, 8, and 24 hours post-dose via submandibular vein or other appropriate methods. Each sample collected was approximately 0.03 mL, anticoagulated with sodium heparin, and placed on ice after collection. Additionally, three mice were administered a single intravenous injection of 1 mg/kg of the test compound, and blood samples were collected at 0.083, 0.25, 0.5, 1, 2, 4, 8, and 24 hours post-dose via submandibular vein or other appropriate methods. Each sample collected was approximately 0.03 mL, anticoagulated with sodium heparin, and placed on ice after collection. Plasma was separated by centrifugation within 1 hour (centrifugation conditions: 6800g, 6 minutes, 2-8°C), and the concentration of the compounds of the present invention was analyzed by LC-MS/MS method.
Prior to analysis, all samples were stored at -80°C, and pharmacokinetic parameters were calculated using Phoenix WinNonlin. Table 2: Pharmacokinetic Parameters

Sequence of Human GLP-1R (P43220 24-463): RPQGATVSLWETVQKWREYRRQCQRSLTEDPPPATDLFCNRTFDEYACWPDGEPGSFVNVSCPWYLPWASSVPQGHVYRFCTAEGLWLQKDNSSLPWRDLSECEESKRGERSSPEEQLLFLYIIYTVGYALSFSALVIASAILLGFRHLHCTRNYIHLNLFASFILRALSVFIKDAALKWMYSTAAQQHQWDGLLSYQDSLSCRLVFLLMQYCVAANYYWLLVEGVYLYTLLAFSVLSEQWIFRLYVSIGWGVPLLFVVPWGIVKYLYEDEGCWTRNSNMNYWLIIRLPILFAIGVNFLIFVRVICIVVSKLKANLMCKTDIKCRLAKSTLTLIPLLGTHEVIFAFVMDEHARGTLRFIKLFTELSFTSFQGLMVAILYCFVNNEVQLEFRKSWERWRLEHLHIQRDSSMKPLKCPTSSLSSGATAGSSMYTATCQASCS

Cc1cc(-n2nc3c(c2-n2ccn(-c4ccc(C(=O)N(C)C5CC5)c(Cl)c4)c2=O)[C@H](C)N(C(=O)c2cc4cc([C@H]5CCOC(C)(C)C5)ccc4n2[C@@]2(c4nc(=O)o[nH]4)C[C@@H]2C)CC3)cc(C)c1F [Compound 11]
EC50 (Human GLP-1R): 5.03 nM | AUC(0-t) at 24 h [1]: 35200 ng·h/mL | Cmax [1]: 3170 ng/mL | Tmax [1]: 3 h | half-life [1]: 4.27 h | clearance [1]: 2.02 mL/min/kg | F [1]: 87.27%

Cc1cc(-n2nc3c(c2-n2ccn(-c4ccc(C(=O)N(C)C5CC5)c(F)c4F)c2=O)[C@H](C)N(C(=O)c2cc4cc([C@H]5CCOC(C)(C)C5)ccc4n2[C@@]2(c4nc(=O)o[nH]4)C[C@@H]2C)CC3)cc(C)c1F [Compound 5]
EC50 (Human GLP-1R): 7.69 nM | AUC(0-t) at 24 h [1]: 36700 ng·h/mL | Cmax [1]: 3880 ng/mL | Tmax [1]: 1.33 h | half-life [1]: 3.11 h | clearance [1]: 2.38 mL/min/kg | F [1]: 105.86%

Cc1cc(-n2nc3c(c2-n2ccn(-c4ccc(C(=O)N(C)C5CC5)c(Cl)c4F)c2=O)[C@H](C)N(C(=O)c2cc4cc([C@H]5CCOC(C)(C)C5)ccc4n2[C@@]2(c4nc(=O)o[nH]4)C[C@@H]2C)CC3)cc(C)c1F [Compound 7]
EC50 (Human GLP-1R): 6.12 nM | AUC(0-t) at 24 h [1]: 34700 ng·h/mL | Cmax [1]: 3120 ng/mL | Tmax [1]: 1.33 h | half-life [1]: 3.41 h | clearance [1]: 1.94 mL/min/kg | F [1]: 81.76%
